Data taken from patent US20130156845A1, “LIPID FORMULATED SINGLE STRANDED RNA” (ALNYLAM PHARMACEUTICALS, INC., priority 2010, published 2013).
Like-named read-outs stand apart in the source and are kept apart here. Strand notation (5' to 3'): a small letter for the sugar, then the base; units joined by * are phosphorothioate-linked, units joined directly phosphodiester-linked; [ ] holds rarer units or linkages, { } end groups; capitals alone tell only the bases. [FEt-N] = nucleoside with 2'-OCH2CH2F (FEt) sugar (N: the base); [tcDNA-N] = tricyclo-DNA nucleoside (N: the base); [FEt] = thymidine with 2'-OCH2CH2F (FEt) sugar; e = 2'-O-(2-methoxyethyl) (MOE); m = 2'-O-methyl; r = 2'-OH (RNA); {P} = phosphate; f = 2'-fluoro

Columns and labels:
[1] = system: PTEN; experiment: PTEN mRNA reduction in HeLa cells, dose response (Example 72); type: cell-based, human; details: percent inhibition of PTEN mRNA, 0.167-50 nM
Experimental: In accordance with the present disclosure, oligomeric compounds were synthesized and tested for their ability to reduce PTEN expression over a range of doses. Human HeLa cells were treated with the following oligomeric compounds. A dose comparison was evaluated with dose concentrations of 0.167, 0.5, 1.5, 5, 15 and 50 nM using methods described herein. Expression levels of PTEN were determined using real-time PCR and normalized to RIBOGREEN™ using methods described herein. The percent inhibition of PTEN mRNA was determined and the resulting dose-response curves were used to determine the IC50. The IC50s are listed below.

[2] = Phosphate stability in mouse serum (Example 68)
Experimental: Single-stranded oligomeric compounds were tested for stability in mouse serum.

[3] = system: human PTEN; experiment: PTEN expression in HeLa cells, ssRNAs vs siRNAs (Example 62); type: cell-based
Experimental: A series of 5′ and 2′ bis-substituted modified oligomeric compounds were prepared as single strand RNAs (ssRNAs). The antisense (AS) strands listed below were designed to target human PTEN, and each was also assayed as part of a duplex with the same sense strand (ISIS 341401, shown below) for their ability to reduce PTEN expression levels. HeLa cells were treated with the single stranded or double stranded oligomeric compounds created with the antisense compounds shown below using methods described herein. The IC50's were calculated using the linear regression equation generated by plotting the normalized mRNA levels to the log of the concentrations used.

[4] = full compound with intact phosphorous moiety, first table
[5] = antisense strand duplexed with sense strand ISIS 341401, PTEN mRNA, read-out: EC50 (nM) siRNA

Substance: P-TeUfGfUfCfUfCfUfGfGfUfCfCfUfUfAfCfUfUfAeAe (antisense TUGUCUCUGGUCCUUACUUAA; sugars from the 5' end e1 f18 e2, 5' {P}, backbone not given here) [ISIS 418031, modified ssRNA targeting PTEN]
- IC50 [1]: 3.9 nM

Substance: P-UmUfGmUfCmUfCmUfGmGfUmCfCmUfUmAfCmUfUmAeAe (antisense UUGUCUCUGGUCCUUACUUAA; sugars from the 5' end mfmfmfmfmfmfmfmfmfmee, 5' {P}, backbone not given here) [ISIS 414291, modified ssRNA targeting PTEN]
- IC50 ([1]; listed as 414291): 13 nM

Substance: P-UmUfGmUfCmUfCmUfGmGfUmCfCmUfUmAfCmUfUmAeAe (antisense UUGUCUCUGGUCCUUACUUAA; sugars from the 5' end mfmfmfmfmfmfmfmfmfmee, 5' {P}, backbone not given here) [ISIS 416598, modified ssRNA targeting PTEN]
- IC50 ([1]; listed as 416598): 6.8 nM

Substance: 5′-Po-TjUfoGfoUfoCfoUfoCfoUfoGfoGfoUfoCfoCfoUfsUfsAfsCfsUfsUfsAesAe (antisense {P}-[tcDNA-T]fUfGfUfCfUfCfUfGfGfUfCfCfU*fU*fA*fC*fU*fU*eA*eA) [ISIS 418130]
- T1/2 full length [2, 4]: 5.3 h

Substance: P-UfUfGfUfCfUfCfUfGfGfUfCfCfUfUfAfCfUfUf (antisense {P}-fUfUfGfUfCfUfCfUfGfGfUfC*fC*fU*fU*fA*fC*fU*fU) [ISIS 386187, modified ssRNA targeting PTEN]
- EC50 [3, 5]: 0.3 nM
- EC50 ([3]; single stranded antisense compound, PTEN mRNA, read-out: EC50 (nM) ssRNA): 15 nM

Substance: 5′-Po-ThUfoGfoUfoCfoUfoCfoUfoGfoGfoUfoCfoCfoUfsUfsAfsCfsUfsUfsAesAe (antisense TUGUCUCUGGUCCUUACUUAA; 5'-phosphate, 2'-F, MOE modifications, chemistry not fully specified) [ISIS 440141]
- T1/2 full length ([2]; four compounds tested separately, second table): 0.3 h

Substance: 5′-Ps-UdUfoGfoUfoCfoUfoCfoUfoGfoGfoUfoCfoCfoUfsUfsAfsCfsUfsUf (antisense UUGUCUCUGGUCCUUACUU; 5'-thiophosphate, 2'-F modifications, chemistry not fully specified) [ISIS 430601]
- T1/2 full length [2, 4]: 3.7 h

Substance: P-UeUfGfUfCfUfCfUfGfGfUfCfCfUfUfAfCfUfUfAeAe (antisense UUGUCUCUGGUCCUUACUUAA; sugars from the 5' end e1 f18 e2, 5' {P}, backbone and T or U not given here) [ISIS 418030, modified ssRNA targeting PTEN]
- IC50 [1]: 8.5 nM

Substance: P-TefUfGfUfCfUfCfUfGfGfUfCfCfUfUfAfCfUfUfAeAe (antisense TUGUCUCUGGUCCUUACUUAA; sugars from the 5' end [FEt]1 f18 e2, 5' {P}, backbone not given here; further chemistry not fully specified) [ISIS 418032, modified ssRNA targeting PTEN]
- IC50 [1]: 2.9 nM

Substance: Pz-^meUhUfGmUfCmUfCmUfGmGfUmCfCmUfUmAfCmUfUmAeAe (antisense UUGUCUCUGGUCCUUACUUAA; 5'-difluoromethylenephosphonate, 2'-F/2'-OMe alternating, MOE 3' end, first nucleoside modification undefined, further chemistry not given here) [ISIS 460646, modified ssRNA targeting PTEN, 5′-difluoromethylenephosphonate]
- EC50 [3, 5]: 0.8 nM

Substance: P-TdUfGmUfCmUfCmUfGmGfUmCfCfUfUfAfCfUfUfAeAe (antisense TUGUCUCUGGUCCUUACUUAA; 5'-phosphate, chemical modifications, chemistry not fully specified) [ISIS 435399, modified ssRNA targeting PTEN]
- IC50 [1]: 2 nM

Substance: Pz-^meUmUfGmUfCmUfCmUfGmGfUmCfCmUfUmAfCmUfUmAeAe (antisense UUGUCUCUGGUCCUUACUUAA; 5'-difluoromethylenephosphonate, 2'-F/2'-OMe alternating, MOE 3' end, first nucleoside modification undefined, further chemistry not given here) [ISIS 462606, modified ssRNA targeting PTEN, 5′-difluoromethylenephosphonate]
- EC50 ([3]; antisense strand duplexed with sense strand ISIS 341401, PTEN mRNA, listed as 462606 (AS), read-out: EC50 (nM) siRNA): 0.4 nM

Substance: P-TefUfGfUfCfUfCfUfGfGfUfCfCfUfUfAfCfUfUfAeAe (antisense {P}-[FEt-T]fUfGfUfCfUfCfUfGfGfUfCfCfU*fU*fA*fC*fU*fU*eA*eA) [ISIS 418033, modified ssRNA targeting PTEN]
- IC50 [1]: 11 nM

Substance: UUGUCUCUGGUCCUUACUU (rUrUrGrUrCrUrCrUrGrGrUrC*rC*rU*rU*rA*rC*rU*rU) [ISIS 359455, unmodified RNA antisense strand targeting PTEN]
- EC50 [3, 5]: 0.3 nM

Substance: 5′-Po-UiUfoGfoUfoCfoUfoCfoUfoGfoGfoUfoCfoCfoUfsUfsAfsCfsUfsUfsAesAe (antisense UUGUCUCUGGUCCUUACUUAA; 5'-phosphate, N-methoxyamino BNA, 2'-F, MOE modifications, chemistry not fully specified) [ISIS 418129]
- T1/2 full length [2, 4]: 5.4 h

Substance: P-TUfGfUfCfUfCfUfGfGfUfCfCfUfUfAfCfUfUfAeAe (antisense TUGUCUCUGGUCCUUACUUAA; 5'-phosphate, chemical modifications, chemistry not fully specified) [ISIS 418131, modified ssRNA targeting PTEN]
- IC50 [1]: 3.4 nM

Substance: P-TdUfGfUfCfUfCfUfGfGfUfCfCfUfUfAfCfUfUfAeAe (antisense TUGUCUCUGGUCCUUACUUAA; chemistry not fully specified) [ISIS 435394, modified ssRNA targeting PTEN]
- IC50 [1]: 18.1 nM

Substance: Pz-^meUmUfGmUfCmUfCmUfGmGfUmCfCmUfUmAfCmUfUmAeAe (antisense UUGUCUCUGGUCCUUACUUAA; 5'-difluoromethylenephosphonate, 2'-F/2'-OMe alternating, MOE 3' end, first nucleoside modification undefined, further chemistry not given here) [ISIS 462607, modified ssRNA targeting PTEN, 5′-difluoromethylenephosphonate]
- EC50 ([3]; antisense strand duplexed with sense strand ISIS 341401, PTEN mRNA, listed as 462607 (AS), read-out: EC50 (nM) siRNA): 1 nM
